± gives the expanded uncertainty stated by the source.
Assays:
[1] = 101 kPa, Liquid, Vibrating tube method
[2] = xn = mol fraction of the nth substance listed; details: 283.15 K; 101 kPa; Liquid; Vibrating tube method; x2 = 0

mass density ([1]; 283.15 K) [kg/m3]	mass density ([1]; 288.15 K) [kg/m3]	mass density ([1]; 293.15 K) [kg/m3]	mass density ([1]; 298.15 K) [kg/m3]	mass density ([1]; 303.15 K) [kg/m3]	mass density [2] [kg/m3]	SMILES
894.462 ± 0.23	889.963 ± 0.23	885.456 ± 0.23	880.837 ± 0.23	876.279 ± 0.23	–	CCCOCC(C)O (configuration not stated) [1-propoxy-2-propanol]
999.699 ± 0.05	–	–	–	–	–	O [water]
–	–	–	–	–	999.699 ± 0.05	O [water] + CCCOCC(C)O

Reference: the NIST ThermoML archive (doi:10.1016/j.jct.2009.06.016)
